Assay results from US20260083851A1 (AVILAR THERAPEUTICS, INC., priority 2022, published 2026).

What follows are molecules tested against T1, ASGP receptor (biotinylated ASGPR) (Homo sapiens, UniProt P07306). Settings: SPR, Biacore 8K, 25° C.; Table 1A; read-out: ASGPR KD.
T1 construct: biotin (biotinylated)
T1 sequence (P07306 1-291): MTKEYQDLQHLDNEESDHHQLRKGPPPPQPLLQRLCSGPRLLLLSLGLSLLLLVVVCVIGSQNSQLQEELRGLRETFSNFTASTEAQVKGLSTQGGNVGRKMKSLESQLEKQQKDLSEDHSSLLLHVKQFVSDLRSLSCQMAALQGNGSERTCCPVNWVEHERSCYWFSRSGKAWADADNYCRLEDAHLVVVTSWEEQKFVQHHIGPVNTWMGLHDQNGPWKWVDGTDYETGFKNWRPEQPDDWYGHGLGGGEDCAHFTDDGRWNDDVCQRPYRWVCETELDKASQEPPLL
Assay type: binding

Kd	SMILES
< 10 µM	COC(=O)c1cnc(C(=O)NC[C@H]2OC[C@H](Nc3cncc(C(F)(F)F)n3)[C@@H](O)[C@H]2O)nc1 [A72, methyl 2-((((2R,3R,4R,5S)-3,4-dihydroxy-5-((6-(trifluoromethyl)pyrazin-2-yl)amino)tetrahydro-2H-pyran-2-yl)methyl)carbamoyl)pyrimidine-5-carboxylate]
< 10 µM	O=C(NC[C@H]1OC[C@H](Nc2cncc(C(F)(F)F)n2)[C@@H](O)[C@H]1O)c1cnc2ccccc2n1 [A71, N-(((2R,3R,4R,5S)-3,4-dihydroxy-5-((6-(trifluoromethyl)pyrazin-2-yl)amino)tetrahydro-2H-pyran-2-yl)methyl)quinoxaline-2-carboxamide]
< 10 µM	O=C(NC[C@H]1OC[C@H](Nc2cncc(C(F)(F)F)n2)[C@@H](O)[C@H]1O)c1ccccn1 [A74, N-(((2R,3R,4R,5S)-3,4-dihydroxy-5-((6-(trifluoromethyl)pyrazin-2-yl)amino)tetrahydro-2H-pyran-2-yl)methyl)picolinamide]
< 10 µM	O=C(NC[C@H]1OC[C@H](Nc2cncc(C(F)(F)F)n2)[C@@H](O)[C@H]1O)c1ncc(-c2ccccc2)cn1 [A75, N-(((2R,3R,4R,5S)-3,4-dihydroxy-5-((6-(trifluoromethyl)pyrazin-2-yl)amino)tetrahydro-2H-pyran-2-yl)methyl)-5-phenylpyrimidine-2-carboxamide]
< 10 µM	OC[C@H]1O[C@H](c2ccccc2)[C@H](Nc2nccc(C(F)(F)F)n2)[C@@H](O)[C@H]1O [A96, (2R,3R,4R,5R,6R)-2-(hydroxymethyl)-6-phenyl-5-((4-(trifluoromethyl)pyrimidin-2-yl)amino)tetrahydro-2H-pyran-3,4-diol]
< 10 µM	O[C@@H]1[C@H](O)[C@@H](Nc2cncc(C(F)(F)F)n2)CO[C@@H]1CNc1ccnnc1 [A41, (2R,3R,4R,5S)-2-((pyridazin-4-ylamino)methyl)-5-((6-(trifluoromethyl)pyrazin-2-yl)amino)tetrahydro-2H-pyran-3,4-diol]

Same assay, conditions: SPR, Biacore 8K, 25° C.; Table 1B; read-out: ASGPR Kd

Kd	SMILES
< 10 µM	OC[C@H]1OC[C@H](Nc2cccc(OC(F)(F)F)n2)[C@@H](O)[C@H]1O [A143, (2R,3R,4R,5S)-2-(hydroxymethyl)-5-((6-(trifluoromethoxy)pyridin-2-yl)amino)tetrahydro-2H-pyran-3,4-diol]
< 10 µM	O=C1CCCN1C[C@H]1OC[C@H](Nc2cncc(C(F)(F)F)n2)[C@@H](O)[C@H]1O [A157, 1-(((2R,3R,4R,5S)-3,4-dihydroxy-5-((6-(trifluoromethyl)pyrazin-2-yl)amino)tetrahydro-2H-pyran-2-yl)methyl)pyrrolidin-2-one]
< 10 µM	COc1cc(N[C@H]2CO[C@H](CO)[C@H](O)[C@@H]2O)nc(C(F)(F)F)c1 [A151, (2R,3R,4R,5S)-2-(hydroxymethyl)-5-((4-methoxy-6-(trifluoromethyl)pyridin-2-yl)amino)tetrahydro-2H-pyran-3,4-diol]
< 10 µM	OC[C@H]1OC[C@H](Oc2cncc(C(F)(F)F)n2)[C@@H](O)[C@H]1O [A141, (2R,3R,4S,5S)-2-(hydroxymethyl)-5-((6-(trifluoromethyl)pyrazin-2-yl)oxy)tetrahydro-2H-pyran-3,4-diol]

Same assay, conditions: SPR, Biacore 8K, 25° C.; Table 1C, numeric bound; read-out: ASGPR KD

Kd	SMILES
> 30 µM	OC[C@H]1OC[C@H](Nc2ncc3cc[nH]c3n2)[C@@H](O)[C@H]1O [A184, (2R,3R,4R,5S)-5-((7H-pyrrolo[2,3-d]pyrimidin-2-yl)amino)-2-(hydroxymethyl)tetrahydro-2H-pyran-3,4-diol]

Same assay, conditions: SPR, Biacore 8K, 25° C.; Table 1C; read-out: ASGPR KD

SMILES	Kd
C[C@H]1O[C@H](c2cn(C3CCN(C(=O)OC(C)(C)C)CC3)nn2)[C@H](Oc2cccc(C(F)(F)F)n2)[C@@H](O)[C@H]1O [A217, tert-butyl 4-(4-((2R,3R,4S,5R,6R)-4,5-dihydroxy-6-methyl-3-((6-(trifluoromethyl)pyridin-2-yl)oxy)tetrahydro-2H-pyran-2-yl)-1H-1,2,3-triazol-1-yl)piperidine-1-carboxylate]	< 10 µM
O=C(O)c1ccc(OC[C@H]2OC[C@H](Nc3cncc(C(F)(F)F)n3)[C@@H](O)[C@H]2O)nn1 [A186, 6-(((2R,3R,4R,5S)-3,4-dihydroxy-5-((6-(trifluoromethyl)pyrazin-2-yl)amino)tetrahydro-2H-pyran-2-yl)methoxy)pyridazine-3-carboxylic acid]	< 10 µM

More lines, now with the values ahead:

Kd	SMILES
< 10 µM	O[C@@H]1[C@H](O)[C@@H](Oc2cccc(C(F)(F)F)n2)CO[C@@H]1CSc1ccccc1 [A304]
< 10 µM	O=C1c2c(F)cccc2CN1C[C@H]1OC[C@H](Oc2cccc(C(F)(F)F)n2)[C@@H](O)[C@H]1O [A272]
< 10 µM	O=C(O)c1ccc(-c2ccc(OC[C@H]3OC[C@H](Nc4cccc(C(F)(F)F)n4)[C@@H](O)[C@H]3O)cc2)cc1 [A225, 4′-(((2R,3R,4R,5S)-3,4-dihydroxy-5-((6-(trifluoromethyl)pyridin-2-yl)amino)tetrahydro-2H-pyran-2-yl)methoxy)-[1,1′-biphenyl]-4-carboxylic acid]
< 10 µM	C[C@H]1O[C@H](C#Cc2ccc(C(=O)O)nn2)[C@H](Oc2cccc(C(F)(F)F)n2)[C@@H](O)[C@H]1O [A331]
< 10 µM	CC(C)(C)OC(=O)N1CCC(n2cc([C@H]3OC[C@H](Oc4cccc(C(F)(F)F)n4)[C@@H](O)[C@H]3O)nn2)CC1 [A220, tert-butyl 4-(4-((2R,3R,4S,5S)-3,4-dihydroxy-5-((6-(trifluoromethyl)pyridin-2-yl)oxy)tetrahydro-2H-pyran-2-yl)-1H-1,2,3-triazol-1-yl)piperidine-1-carboxylate]
< 10 µM	O=C(O)c1ccc(-c2ccc(OC[C@H]3OC[C@H](Oc4cccc(C(F)(F)F)n4)[C@@H](O)[C@H]3O)cc2)nn1 [A221, 6-(4-(((2R,3R,4S,5S)-3,4-dihydroxy-5-((6-(trifluoromethyl)pyridin-2-yl)oxy)tetrahydro-2H-pyran-2-yl)methoxy)phenyl)pyridazine-3-carboxylic acid]
< 10 µM	O[C@@H]1[C@H](O)[C@@H](Nc2cccc(C(F)(F)F)n2)CO[C@@H]1CN1CCCCC1 [A241]
< 10 µM	O[C@@H]1[C@H](O)[C@@H](Nc2cccc(C(F)(F)F)n2)CO[C@@H]1CN1CCCC1 [A240]
< 10 µM	O[C@@H]1[C@H](O)[C@@H](Nc2cncc(C(F)(F)F)n2)CO[C@@H]1CN1CCc2ccccc2C1 [A232, (2R,3R,4R,5S)-2-((3,4-dihydroisoquinolin-2(1H)-yl)methyl)-5-((6-(trifluoromethyl)pyrazin-2-yl)amino)tetrahydro-2H-pyran-3,4-diol]
< 10 µM	O[C@@H]1[C@@H](Oc2cccc(C(F)(F)F)n2)CSC[C@@H]1O [A345]

Same assay, conditions: SPR, Biacore 8K, 25° C.; Table 1D; read-out: ASGPR KD

Kd	SMILES
< 10 µM	O=C(O)C1CCN(c2ccc(N3C[C@H](Nc4cncc(C(F)(F)F)n4)[C@@H](O)[C@@H](O)C3)nc2)CC1 [A401]
< 10 µM	O=C(CCCCC(=O)N1C[C@H](Nc2cncc(C(F)(F)F)n2)[C@@H](O)[C@@H](O)C1)OCc1ccccc1 [A404]
< 10 µM	CN(c1cncc(C(F)(F)F)n1)[C@H]1CNC[C@H](O)[C@@H]1O [A365]
10 to 100 µM	O[C@@H]1[C@@H](Nc2nc(Cl)nn3cccc23)CNC[C@@H]1O [A382]
< 10 µM	O=C(c1ccc(C(F)(F)F)cc1F)N1C[C@H](Nc2cncc(C(F)(F)F)n2)[C@@H](O)[C@@H](O)C1 [A379]
< 10 µM	O[C@@H]1[C@@H](Oc2cncc(C(F)(F)F)n2)CNC[C@@H]1O [A389]

Same assay, conditions: SPR, Biacore 8K, 25° C.; Table 1E; read-out: ASGPR KD

Kd	SMILES
< 10 µM	C[C@H]1O[C@H](COc2ccc(C(=O)O)nn2)[C@H](Oc2cccc(C(F)(F)F)n2)[C@@H](O)[C@H]1O [A444]
